From publication PMC6539868, “Syntheses and Biological Studies of Cu(II) Complexes Bearing Bis(pyrazol-1-yl)- and Bis(triazol-1-yl)-acetato Heteroscorpionate Ligands” (Molecules, 2019) come the findings set out here.

The nature of one data set: Solubility. The format is physicochemical.
The test system of data set [1] is LoVo cells. Put plainly: Transmission electron microscopy (TEM) analysis. Particulars: IC50 of compound, 24 h. The format is cell-based, human. The method, then: Approximately 10^6 LoVo cells were seeded in 24-well plates and, after 24 h incubation, treated with 1 and incubated further 24 h. Samples were then washed with cold PBS, harvested and fixed with 1.5% glutaraldehyde buffer with 0.2 M sodium cacodylate, pH 7.4. After washing with buffer and post-fixation with 1% OsO4 in 0.2 M cacodylate buffer, samples were desiccated and embedded in epoxy resin (Epon Araldite). Sagittal serial sections of about 1 μm were counterstained with toluidine blue; subsequently, sections of 90 nm were stained with uranyl acetate and lead citrate.
Micrographs were taken with a Hitachi H-600 electron microscope (Hitachi, Tokyo, Japan) at 75 kV. All photos were elaborated in Corel Draw 11 (Corel Corporation, Ottawa, ON, Canada).
Transmission electron microscopy (TEM) analysis has been performed in order to investigate the influence of copper compounds on LoVo cells morphology and their organelles.

Data set [2] concerns LoVo cells. The data set is described as follows: Cellular uptake (intracellular copper by GF-AAS). In kind it is cell-based, human. Particulars: 24 h, 2 μM. Here is the method:
LoVo cells (2.5 × 10^6) were seeded in 75 cm^2 flasks in growth medium (20 mL). After overnight incubation, the medium was replaced, and the cells were treated with tested compounds for 24 h. Cell monolayers were then processed and mineralized as previously described. The sample was analyzed for copper by using a Varian AA Duo graphite furnace atomic absorption spectrometer (Varian, Palo Alto, CA, USA) at the wavelength of 324 nm. The calibration curve was obtained using known concentrations of standard solutions purchased from Sigma Chemical Co.
With the purpose of underling a possible correlation between cellular uptake efficiency and cytotoxicity, LoVo cells were treated for 24 h with equimolar concentrations (2 μM) of copper(II) complexes and the intracellular copper amount was quantified by means of Graphite Furnace Atomic Absorption Spectrometry (GF-AAS) analysis. […] In fact, the intracellular copper content detected in LoVo cells follows the same cytotoxicity trend 1 > 2 > 3.

Data set [3] has as its system panel of human cancer cell lines derived from solid tumors. The data set is described as follows: MTT cytotoxicity, whole panel of human cancer cell lines. In kind it is cell-based. Particulars: mean over the cell lines of Table 2, 72 h. Here is the method:
(§1) The growth inhibitory effect towards 2D tumor cell lines was evaluated by means of MTT assay as previously described. IC50 values were calculated by four parameters logistic (4-PL) model. All the values are the means ± SD of not less than five measurements starting from three different cell cultures.
(§2) The in vitro antitumor activity of copper(II) complexes 1–3 and the uncoordinated ligands [HC(COOH)(pz^Me2)2], [HC(COOH)(pz)2] and [HC(COOH)(tz)2] was evaluated against a panel of human cancer cell lines derived from solid tumors. Adherent cell lines representative of cervical (A431), pancreatic (BxPC3) colon (HCT-15), breast (MCF-7), lung (A549), and ovarian (2008) cancers, differently sensitive to cisplatin, were exposed to the indicated compounds for 72 h.
(§3) HCT-15 colon cancer cells are notoriously poorly chemosensitive to cisplatin. […] As for cisplatin, the clinical effectiveness of OXP is seriously hampered by the cancer cell resistance and, at present, few other drug regimens are available for patients with OXP-refractory colorectal cancers. […] The RF values (calculated by dividing IC50 for resistant cells by those for sensitive ones) were about 10 times lower than that of OXP, excluding the occurrence of cross-resistance phenomena.

The subject of data set [4] is HCT-15 colon cancer cell spheroids. Put plainly: Acid phosphatase (APH) assay in 3D spheroids. The format is cell-based, human. Particulars: 72 h, APH test, read-out: IC50 (µM) ± S.D. HCT-15 spheroids. The method, then:
Spheroid cultures were obtained by seeding 2.5 × 10^3 HCT-15 cells/well in round bottom non-tissue culture treated 96 well-plate (Greiner Bio-one, Kremsmünster, Austria) in phenol red free RPMI-1640 medium (Sigma Chemical Co.), containing 10% FCS and supplemented with 20% methyl cellulose stock solution.
An APH modified assay was used for determining cell viability in 3D spheroids, as previously described. IC50 values were calculated with a four parameter logistic (4-PL) model. All the values are the means ± SD of not less than four independent experiments.
The in vitro antitumor efficacy of the newly developed compounds was also tested on 3D colon cancer cell culture models. Differently from 2D monolayer culture, 3D spheroid cell culture systems comprise cancer cells in various cell growth stages. Consequently, the multicellular cancer spheroid model is recognized to better reflect the tumor mass in vivo regarding drug permeation, cell interactions, gene expression, hypoxia and nutrient gradients with respect to monolayer cell cultures. Table 4 summarizes the IC50 values obtained after treatment of 3D cell spheroids of human HCT-15 colon cancer cells with copper(II) compounds as well as with cisplatin, as reference drug. In accordance with 2D chemosensitivity assays, complex 3 was scarcely effective, whereas complex 1 was as effective as cisplatin. […] We hypothesize that in this non-proliferative and very resistant tumor model the higher lipophilicity of 1, due to the presence of methyl substituents on the pyrazolyl rings, might be responsible for the enhanced compound penetration in the core area of spheroids.

A further data set concerns A549. Put plainly: MTT cytotoxicity assay, 2D monolayer. In kind it is cell-based, human. Particulars: 72 h.
Description: (§4) Human lung (A549), colon (HCT-15 and LoVo) and breast (MCF-7) carcinoma cell lines were obtained from American Type Culture Collection (ATCC, Rockville, MD, USA). Human pancreatic BxPC3 carcinoma cells were obtained from European Collection of Cell Culture (ECACC, Salisbury, UK). Human ovarian 2008 cancer cells were kindly provided by Prof. G. Marverti (Dept. of Biomedical Science of Modena University, Modena, Italy). Human squamous cervical A431 carcinoma cells were kindly provided by Prof. F. Zunino (Division of Experimental Oncology B, Istituto Nazionale dei Tumori, Milan, Italy). The LoVo-OXP cells were obtained as previously described. Cell lines were maintained in culture in the logarithmic phase at 37 °C in a 5% carbon dioxide atmosphere using the following media added of 10% fetal calf serum (Euroclone, Milan, Italy), antibiotics (50 units/mL penicillin and 50 μg/mL streptomycin), and 2 mM L-glutamine: (i) RPMI-1640 medium (Euroclone) for HCT-15, A431, MCF-7, BxPC3 and 2008 cells; (ii) F-12 HAM’S (Sigma Chemical Co.) for A549, LoVo and LoVo-OXP cells.
as §1, §2
On the technique in general: Formazan colour is commonly taken as a measure of viable cells.

Another data set concerns BxPC3. Put plainly: MTT cytotoxicity assay, 2D monolayer. In kind it is cell-based, human. Particulars: 72 h, MTT test, pancreatic carcinoma; read-out: IC50 (µM) ± S.D. BxPC3.
Description: as §4, §1, §2

The subject of another data set is HCT-15. Put plainly: MTT cytotoxicity assay, 2D monolayer. In kind it is cell-based, human. Particulars: 72 h.
Description: as §4, §1, §2

Another data set deals with A431. The data set is described as follows: MTT cytotoxicity assay, 2D monolayer. In kind it is cell-based, human. Particulars: 72 h, MTT test, cervical carcinoma; read-out: IC50 (µM) ± S.D. A431.
Description: as §4, §1, §2

Another data set concerns MCF-7. The data set is described as follows: MTT cytotoxicity assay, 2D monolayer. Particulars: 72 h, MTT test, breast carcinoma; read-out: IC50 (µM) ± S.D. MCF-7. In kind it is cell-based, human.
Description: as §4, §1, §2

Another data set concerns 2008. The data set is described as follows: MTT cytotoxicity assay, 2D monolayer. In kind it is cell-based, human. Particulars: 72 h, MTT test, ovarian cancer; read-out: IC50 (µM) ± S.D. 2008.
Description: as §4, §1, §2

The nature of the next data set: Stability to air. The format is physicochemical. Particulars: also as solutions.
A further data set concerns LoVo. Put plainly: MTT cytotoxicity assay, cross-resistance profile. The format is cell-based, human. Particulars: 72 h, MTT test, oxaliplatin-sensitive colon cancer cells; read-out: IC50 (µM) ± S.D. LoVo.
Description: as §4, §1, §3

A further data set concerns LoVo-OXP. Put plainly: MTT cytotoxicity assay, cross-resistance profile. In kind it is cell-based, human.
Description: as §4, §1, §3

The test system of data set [5] is LoVo cells. The data set is described as follows: ROS production (CM-H2DCFDA). The format is cell-based, human. Particulars: 15 μM complexes, antimycin 3 μM. The method, then:
The production of ROS was measured in LoVo cells (10^4 per well) grown for 24 h in a 96-well plate in RPMI medium without phenol red. Samples were loaded with 10 μM 5-(and-6)-chloromethyl-2′,7′-dichlorodihydrofluorescein diacetate acetyl ester (CM-H2DCFDA) (Molecular Probes-Invitrogen, Eugene, OR, USA) for 25 min, in the dark. Afterward, each well was washed with PBS and incubated with tested complexes. The fluorescence intensity in each well was assessed by means of a Fluoroskan Ascent FL (Labsystem, Vantaa, Finland) plate reader (ex: 485 nm; em: 527 nm). Antimycin (3 μM, Sigma), a well-known inhibitor of the electron transport chain at Complex III level, was used as reference compound.
It has been documented that oxidative stress and generation of ROS play a significant role in anticancer activity of copper(II) compounds [22, 81]. To explore the molecular mechanisms underlying the cytotoxicity of newly synthetized copper(II) complexes, cellular production of ROS upon treatment with 15 μM of complex 1, 2 or 3 was monitored in LoVo cells by using the peroxide-sensitive fluorescent probe CM-H2DCFDA (Figure 5). […] Conversely, for all copper complexes there was no ROS induction.

For orientation: IC50 means the concentration that gives 50% inhibition. `Cc1cc(C)n(C(C(=O)O)n2nc(C)cc2C)n1.Cc1cc(C)n(C(C(=O)[O-])n2nc(C)cc2C)n1.[Cu+2].[O-][Cl+3]([O-])([O-])[O-]` [compound 1, [HC(COOH)(pz^Me2)2]Cu[HC(COO)(pz^Me2)2]·ClO4]: in “Solubility” (methanol, DMSO, acetonitrile), the “solubility in methanol, DMSO and acetonitrile” value was “soluble”. Further, the solubility in water result in the data set “Solubility” (water) was “slightly soluble”. Further, the “cytoplasmic vacuolization (TEM morphology)” value in the data set with LoVo cells [1] is reported as “massive cytoplasmic vacuolization”. Besides, in the data set with LoVo cells [1], the “hallmarks of apoptosis (TEM morphology)” value was “no classical hallmarks of apoptosis”. Also, in the data set with LoVo cells [2], the “cellular uptake efficiency (intracellular copper amount)” value is recorded as “taken up slightly more efficiently than complex 2”. Also, the IC50 in data set [3] is 6.5 µM; in [4] it was 67.8 ± 14.9 µM; in the data set on A549 (MTT test, lung carcinoma, read-out: IC50 (µM) ± S.D. A549), 3.6 ± 0.5 µM; in the data set on BxPC3, 2.5 ± 0.4 µM; in the data set on HCT-15 (MTT test, colon carcinoma, read-out: IC50 (µM) ± S.D. HCT-15) it was 8.5 ± 0.6 µM; in the data set with A431, 3.8 ± 1.1 µM. Further, the IC50 in the data set with MCF-7 was 10.5 ± 2.1 µM; with 2008, 10.8 ± 1.3 µM; in the data set on LoVo it was 4.2 ± 0.9 µM; with LoVo-OXP (72 h, MTT test, oxaliplatin-resistant colon cancer cells, read-out: IC50 (µM) ± S.D. LoVo-OXP), 5.2 ± 0.6 µM. The “fold more effective than cisplatin” value in the data set on A549 (A549 cells, MTT) is “roughly 2 fold”; with HCT-15 (HCT-15 cells, MTT) it was “roughly 2 fold”. Moreover, the air stability result in the data set “Stability to air” is “air stable even as solutions”. For the same compound, in the data set with LoVo-OXP (LoVo-OXP/LoVo), the “RF times lower than that of OXP” value is given as “about 10 times”. Besides, the “RF (resistance factor)” value with LoVo-OXP (RF = IC50 (resistant cells)/IC50 (wild-type cells), LoVo-OXP/LoVo) is on record as 1.2.
Take Antimycin: in the data set on LoVo cells [5], the ROS production entry is listed as “markedly stimulated ROS formation”.
